Results taken from BindingDB's records for doi:10.1021/jm0604777 (University of Bristol, 2006).

Columns and labels:
[1] = molecular target: Delta-type opioid receptor (Homo sapiens, UniProt P41143); test: Displacement of [3H]Cl-DPDPE from human recombinant DOR expressed in CHO cells
[2] = Binding affinity to DOR in guinea pig brain membrane

Chain of Delta-type opioid receptor (P41143 whole entry): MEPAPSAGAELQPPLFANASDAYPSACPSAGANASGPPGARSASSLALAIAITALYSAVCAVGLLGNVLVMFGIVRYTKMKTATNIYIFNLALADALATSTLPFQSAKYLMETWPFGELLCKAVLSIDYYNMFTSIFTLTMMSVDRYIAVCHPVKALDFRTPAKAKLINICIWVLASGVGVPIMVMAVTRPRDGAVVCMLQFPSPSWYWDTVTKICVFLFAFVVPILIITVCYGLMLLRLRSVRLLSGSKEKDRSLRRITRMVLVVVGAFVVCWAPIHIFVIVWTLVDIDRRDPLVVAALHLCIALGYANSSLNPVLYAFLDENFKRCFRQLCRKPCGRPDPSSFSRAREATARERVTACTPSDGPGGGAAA

Row | Structure (SMILES) | Ki [1] | Ki [2]
1 | Cc1ccc(CCC(=O)N[C@@]23CCC(=O)[C@@H]4Oc5c(O)ccc6c5[C@@]42CCN(C)C3C6)cc1 [N-[(1R,13R,17S)-10-hydroxy-4-methyl-14-oxo-12-oxa-4-azapentacyclo[9.6.1.0^{1,13}.0^{5,17}.0^{7,18}]octadeca-7(18),8,10-trien-17-yl]-3-(4-methylphenyl)propanamide] | 1.3 nM | –
2 | COc1ccc2c3c1O[C@H]1C(=O)CC[C@@]4(NC(=O)/C=C/c5ccccc5Cl)C(C2)N(CC2CC2)CC[C@]314 [N-cyclopropylmethyl-14beta-(2'-chlorocinnamoylamino)-7,8-dihydronorcodeinone] | – | 7.2 nM
3 | COc1ccc2c3c1O[C@H]1C(=O)CC[C@@]4(NC(=O)/C=C/c5ccccc5C)C(C2)N(CC2CC2)CC[C@]314 [N-cyclopropylmethyl-14beta-(2'-methylcinnamoylamino)-7,8-dihydronorcodeinone] | – | 2.3 nM
4 | Cc1ccccc1/C=C/C(=O)N[C@@]12CCC(=O)[C@@H]3Oc4c(O)ccc5c4[C@@]31CCN(CC1CC1)C2C5 [N-cyclopropylmethyl-14beta-(2'-methylcinnamoylamino)-7,8-dihydronormorphinone] | 1.3 nM | –
